According to article PMC8957246, “Synthesis and diverse biological activity profile of triethylammonium isatin-3-hydrazones” (ADMET & DMPK, 2022):
Read-outs that look alike come from different tables or passages of the source.

Legend:
Format in all cases: cell-based
[1] = tested on: Candida albicans ATCC 10231; assay: Antimicrobial activity, serial dilution (MIC/MBC), Ca; settings: ATCC10231
Protocol: The antimicrobial activity of the test compounds was determined by the serial dilution technique in Muller Hinton Broth 2 and in Sabouradu broth for fungi. The cultures used for testing included Gram-positive bacteria: Staphylococcus aureus ATCC 6538P FDA 209P, Bacillus cereus ATCC 10702 NCTC 8035, Enterococcus faecalis ATCC 29212; Gram-negative bacteria: Escherichia coli ATCC 25922, Pseudomonas aeruginosa ATCC 9027, and fungi: Trichophyton mentagrophytes var. gypseum 1773, and Candida albicans ATCC 10231; methicillin-resistant strains of S. aureus (MRSA) was obtained from hospital patients with chronic tonsillitis in the Republican Clinical Hospital (Kazan, Russia). The bacterial load was 3.0 × 10^5 cfu/ml. The fungi load was 2.0 × 10^3 cfu/ml. The results were recorded every 24 h for 5-7 days. Cultures were incubated at 37 °C. The experiment was repeated three times. […] The minimum inhibitory concentration (MIC) was defined as the minimum concentration of a compound that inhibits the growth of the corresponding test microorganism. The growth of bacteria, as well as the absence of the growth due to the bacteriostatic action of compounds, were recorded.
Synthesized compounds were further evaluated for antimicrobial activity against test microorganisms: Staphylococcus aureus ATCC 209p (Sa), Bacillus cereus ATCC 8035 (Bc), Escherichia coli CDC F-50 (Ec), Enterococcus faecalis (Ef), Pseudomonas aeruginosa ATCC 9027, Aspergillus niger BKMF-1119, Trichophyton mentagrophytes var. gypseum 1773, and Candida albicans 855-653 including methicillin-resistant strains of S. aureus (MRSA 1 and MRSA 2). The minimum inhibitory (MIC) and minimum bactericidal (MBC) concentrations of ammonium salts were determined against these pathogens (Table 1). Due to the lack of activity of compounds 3a-g against Gram-negative bacterial strains and some fungi, the corresponding data are not shown.

[2] = tested on: Micrococcus luteus B-109; assay: Bactericidal activity, agar diffusion, M. luteus; settings: Micrococcus luteus, B109, 2 mM/L
Description: (§1) Plant pathogenic bacterial strains Micrococcus luteus B-109, Pectobacterium atrosepticum 1043, Pectobacterium carotovorum subsp. carotovorum MI, Pseudomonas fluorescens EL-2.1, and Xanthomonas campestris B-610 and fungal strain Fusarium oxysporum IBPPM 543 were obtained from the specialized scientific culture collection of IBPPM RAS (WFCC no. 975, WDCM no. 1021) (CM IBPPM). Pathogenic fungus Phytophthora cactorum VKM F-985 provided by the All-Russian Collection of Microorganisms (VKM) and deposited at A.E. Favorsky Irkutsk Institute of Chemistry, SB RAS, was also used as test organism. Bacteria M. luteus, P. carotovorum subsp. carotovorum, P. atrosepticum, and Ps. fluorescens were grown in meat-peptone medium (BP), and X. campestris was grown in the medium with glucose, yeast extract, and calcium carbonate (GYCa). Solid media contained Bacto agar (18 g/L); pH was adjusted to 7.2-7.4. All bacterial cultures were grown at 28°C. The mycelial cultures of F. oxysporum and P. cactorum were grown on a glucose-peptone-yeast (GPY) nutrient medium at 27 °C. For inoculum preparation, both fungal strains were initially grown on the agar GPY in Petri dishes and then transferred into the seed medium by punching out 5 mm of the agar plate culture with a self-designed cutter.
(§2) Antibacterial and antifungal activities of the compounds were explored using the agar diffusion method and the technique of a phytopathogen radial growth inhibition. Method of diffusion in agar (measuring the diameter of growth inhibition zones) was used for determining the bactericidal activity. The 6-mm wells were made in ager medium (GYCa for Xanthomonas campestris or BP for other bacteria). Bacterial suspensions were distributed over the agar surface, and the tested compound's solution (150 μl) was added to each well. The width of growth inhibition zones around the wells was determined after incubation for 36-40 h.
(§3) The solutions of tested compounds were prepared with a concentration of 2 mmol/l (stock solution). For comparison, test compounds were also commonly applied disinfecting agents and antibiotics.

[3] = tested on: Fusarium oxysporum IBPPM 543; assay: Fungicidal activity, radial growth inhibition, F. oxysporum; settings: for EC50: Fusarium oxysporum, IBPPM543, 168 h, day 7, EC50 = 50C/I, read-out: EC50, μg/mL at day 7
Description: as §1
For the fungicidal activity analysis, radial growth (colony diameters) of the fungi on a solid medium in the absence and in the presence of the compounds 3a,c-g solutions at various concentrations were compared. The method consisted of the following: sterile, melted and then cooled to about 60°C GPY agar medium (20.0 ml) was mixed with the precisely measured volumes of the solutions under question, and poured into a sterile Petri dish (90 mm i.d.). After solidification of GPY agar, the media were inoculated by the fungus using 10-day-old cultures of F. oxysporum or P. cactorum. The inoculation was done by transferring a 5-mm (i.d.) GPY-agar block covered with mycelium to the center of the Petri dish followed by incubation in a thermostat at 27°C. The fungicidal effect was scored by the size of mycelium colony on a Petri dish compared to the control without fungicidal admixtures to GPY agar. Each treatment was performed in at least four replicates in two independent experiments. The observation period ended when the control Petri dish was filled with mycelium (usually after 12 days). The inhibition of the phytopathogen colony growth by the compounds 3a,c-g or fludioxonil solutions was calculated as a percentage by which the mycelium radial propagation was decreased compared to the unaffected control, the latter was taken as 100 % of growth (or zero percent of inhibition). The EC50 value was calculated as the compound concentration at which the radial growth of the fungus colony was decreased by 50 % relative to the non-fungicidal control, according to the formula EC50 = 50C/I based on the approach developed e.g., in [34, 35].
as §3

[4] = tested on: Pseudomonas fluorescens EL-2.1; assay: Bactericidal activity, agar diffusion, Ps. fluorescens; settings: Pseudomonas fluorescens, EL2.1, 2 mM/L
Description: as §1, §2, §3

[5] = 150 μl per well, 36-40 h, read-out: width of the inhibition zone
[6] = read-out: Inhibition zone width (mm), not less

SMILES: CC[N+](CC)(CC)CC(=O)N/N=C1\C(=O)N(Cc2cc(C(C)(C)C)c(O)c(C(C)(C)C)c2)c2c(Br)cc(Cl)cc21 [Compound 3g, 2-(2-(1-(3,5-Di-tert-butyl-4-hydroxybenzyl)-5-chloro-7-bromo-2-oxoindolin-3-ylidene)hydrazinyl)-N,N,N-triethyl-2-oxoethanammonium bromide]
- MBC [1]: > 500 µM
- MIC [1]: > 500 µM
- zone of inhibition at 2000 µM [2, 5]: 7 mm
- Inhibition value, I (%) ([3]; C 7.15 μg/mL, age of the fungus 3 days): 0%
- Inhibition value, I (%) ([3]; C 7.15 μg/mL, age of the fungus 5 days): 4%
- Inhibition value, I (%) ([3]; C 7.15 μg/mL, age of the fungus 7 days): 5%
- Inhibition value, I (%) ([3]; C 7.15 μg/mL, age of the fungus 9 days): 4%
- Inhibition value, I (%) ([3]; C 14.30 μg/mL, age of the fungus 3 days): 9%
- Inhibition value, I (%) ([3]; C 14.30 μg/mL, age of the fungus 5 days): 4%
- Inhibition value, I (%) ([3]; C 14.30 μg/mL, age of the fungus 7 days): 11%
- Inhibition value, I (%) ([3]; C 14.30 μg/mL, age of the fungus 9 days): 5%
- Inhibition value, I (%) ([3]; C 28.60 μg/mL, age of the fungus 3 days): 11%
- Inhibition value, I (%) ([3]; C 28.60 μg/mL, age of the fungus 5 days): 7%
- Inhibition value, I (%) ([3]; C 28.60 μg/mL, age of the fungus 7 days): 26%
- Inhibition value, I (%) ([3]; C 28.60 μg/mL, age of the fungus 9 days): 10%
- Inhibition value, I (%) ([3]; C 42.90 μg/mL, age of the fungus 3 days): 31%
- Inhibition value, I (%) ([3]; C 42.90 μg/mL, age of the fungus 5 days): 27%
- Inhibition value, I (%) ([3]; C 42.90 μg/mL, age of the fungus 7 days): 32%
- Inhibition value, I (%) ([3]; C 42.90 μg/mL, age of the fungus 9 days): 13%
- EC50 [3]: 55 µg/mL
- zone of inhibition at 2000 µM [4, 5]: 8.5 mm
- zone of inhibition at 2000 µM [4, 6]: ≥ 8 mm

SMILES: CC[N+](CC)(CC)CC(=O)N/N=C1\C(=O)N(Cc2cc(C(C)(C)C)c(O)c(C(C)(C)C)c2)c2ccc([N+](=O)[O-])cc21 [Compound 3f, 2-(2-(1-(3,5-Di-tert-butyl-4-hydroxybenzyl)-5-nitro-2-oxoindolin-3-ylidene)hydrazinyl)-N,N,N-triethyl-2-oxoethanammonium bromide]
- MBC [1]: > 500 µM
- MIC [1]: > 500 µM
- zone of inhibition at 2000 µM [2, 5]: 10 mm
- zone of inhibition at 2000 µM [2, 6]: ≥ 10 mm
- Inhibition value, I (%) ([3]; C 6.47 μg/mL, age of the fungus 3 days): 13%
- Inhibition value, I (%) ([3]; C 6.47 μg/mL, age of the fungus 5 days): 11%
- Inhibition value, I (%) ([3]; C 6.47 μg/mL, age of the fungus 7 days): 10%
- Inhibition value, I (%) ([3]; C 6.47 μg/mL, age of the fungus 9 days): 9%
- Inhibition value, I (%) ([3]; C 12.94 μg/mL, age of the fungus 3 days): 26%
- Inhibition value, I (%) ([3]; C 12.94 μg/mL, age of the fungus 5 days): 23%
- Inhibition value, I (%) ([3]; C 12.94 μg/mL, age of the fungus 7 days): 21%
- Inhibition value, I (%) ([3]; C 12.94 μg/mL, age of the fungus 9 days): 10%
- Inhibition value, I (%) ([3]; C 25.88 μg/mL, age of the fungus 3 days): 28%
- Inhibition value, I (%) ([3]; C 25.88 μg/mL, age of the fungus 5 days): 27%
- Inhibition value, I (%) ([3]; C 25.88 μg/mL, age of the fungus 7 days): 32%
- Inhibition value, I (%) ([3]; C 25.88 μg/mL, age of the fungus 9 days): 12%
- Inhibition value, I (%) ([3]; C 38.82 μg/mL, age of the fungus 3 days): 29%
- Inhibition value, I (%) ([3]; C 38.82 μg/mL, age of the fungus 5 days): 28%
- Inhibition value, I (%) ([3]; C 38.82 μg/mL, age of the fungus 7 days): 34%
- Inhibition value, I (%) ([3]; C 38.82 μg/mL, age of the fungus 9 days): 18%
- EC50 [3]: 30.8 µg/mL
- zone of inhibition at 2000 µM [4, 5]: 10 mm
- zone of inhibition at 2000 µM [4, 6]: ≥ 10 mm

SMILES: CC[N+](CC)(CC)CC(=O)N/N=C1\C(=O)N(Cc2cc(C(C)(C)C)c(O)c(C(C)(C)C)c2)c2ccccc21 [Compound 3a, 2-(2-(1-(3,5-Di-tert-butyl-4-hydroxybenzyl)-2-oxoindolin-3-ylidene)hydrazinyl)-N,N,N-triethyl-2-oxoethanammonium bromide]
- MBC [1]: > 500 µM
- MIC [1]: > 500 µM
- zone of inhibition at 2000 µM [2, 5]: 9 mm
- zone of inhibition at 2000 µM [2, 6]: ≥ 9 mm
- Inhibition value, I (%) ([3]; C 6.02 μg/mL, age of the fungus 3 days): 11%
- Inhibition value, I (%) ([3]; C 6.02 μg/mL, age of the fungus 5 days): 4%
- Inhibition value, I (%) ([3]; C 6.02 μg/mL, age of the fungus 7 days): 9%
- Inhibition value, I (%) ([3]; C 6.02 μg/mL, age of the fungus 9 days): 0%
- Inhibition value, I (%) ([3]; C 12.04 μg/mL, age of the fungus 3 days): 14%
- Inhibition value, I (%) ([3]; C 12.04 μg/mL, age of the fungus 5 days): 12%
- Inhibition value, I (%) ([3]; C 12.04 μg/mL, age of the fungus 7 days): 18%
- Inhibition value, I (%) ([3]; C 12.04 μg/mL, age of the fungus 9 days): 3%
- Inhibition value, I (%) ([3]; C 24.08 μg/mL, age of the fungus 3 days): 24%
- Inhibition value, I (%) ([3]; C 24.08 μg/mL, age of the fungus 5 days): 16%
- Inhibition value, I (%) ([3]; C 24.08 μg/mL, age of the fungus 7 days): 27%
- Inhibition value, I (%) ([3]; C 24.08 μg/mL, age of the fungus 9 days): 4%
- Inhibition value, I (%) ([3]; C 36.12 μg/mL, age of the fungus 3 days): 28%
- Inhibition value, I (%) ([3]; C 36.12 μg/mL, age of the fungus 5 days): 24%
- Inhibition value, I (%) ([3]; C 36.12 μg/mL, age of the fungus 7 days): 30%
- Inhibition value, I (%) ([3]; C 36.12 μg/mL, age of the fungus 9 days): 12%
- EC50 [3]: 33.4 µg/mL
- zone of inhibition at 2000 µM [4, 5]: 9 mm
- zone of inhibition at 2000 µM [4, 6]: ≥ 9 mm
